Measurements from patent US7795290B2 (Genentech, Inc., priority 2004, dated 2010).

Biological target: T1, AKT1 (Homo sapiens, UniProt P31749)
T1 construct: purchased Upstate 14-276
Assay: HTS ATP-utilizing enzyme assay, off-chip mobility-shift (Caliper HTS 250)
Type: biochemical
Details: kinase named = inhibitory activity/selectivity; test compound 10 μM; active = greater than three-sigma from mean
Outline: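 AKT1 activity was measured by off-chip mobility shift (Caliper HTS 250) as the ratio of peptide substrate to phosphorylated product. Test compound was at 10 μM, with 2.5 h incubation at 20–22° C. EDTA wells served as 100% control and DMSO wells as 0%. Hits were called at three-sigma limits.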

T1 sequence (P31749 whole entry): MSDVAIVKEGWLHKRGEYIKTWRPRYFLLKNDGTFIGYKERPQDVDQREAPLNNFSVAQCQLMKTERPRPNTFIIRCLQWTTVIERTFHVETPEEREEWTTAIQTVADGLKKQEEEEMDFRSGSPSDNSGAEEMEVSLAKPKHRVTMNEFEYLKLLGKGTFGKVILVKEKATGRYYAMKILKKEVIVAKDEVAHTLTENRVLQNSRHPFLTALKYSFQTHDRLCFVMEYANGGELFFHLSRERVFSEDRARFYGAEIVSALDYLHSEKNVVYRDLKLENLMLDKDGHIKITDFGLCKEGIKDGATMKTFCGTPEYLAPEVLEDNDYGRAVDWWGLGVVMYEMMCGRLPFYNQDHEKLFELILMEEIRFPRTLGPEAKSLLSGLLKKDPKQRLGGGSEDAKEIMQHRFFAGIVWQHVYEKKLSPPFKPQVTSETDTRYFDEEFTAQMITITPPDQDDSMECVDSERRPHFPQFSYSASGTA

Activity, AKT1:
COc1ccc(OC)c(-c2csc(N(CCCN3CCOCC3)C(=O)c3ccco3)n2)c1 [N-(4-(2,5-dimethoxyphenyl)thiazol-2-yl)-N-(3-morpholinopropyl)furan-2-carboxamide]
O=C(Nc1nccs1)c1csc(N(CCCN2CCOCC2)C(=O)c2cccs2)n1 [2-(N-(3-morpholinopropyl)thiophene-2-carboxamido)-N-(thiazol-2-yl)thiazole-4-carboxamide]
O=C(c1cccs1)N(CCCN1CCC(O)(O)CC1)c1nc(-c2cc3ccccc3o2)cs1 [N-(4-(benzofuran-2-yl)thiazol-2-yl)-N-(3-(4,4-dihydroxypiperidin-1-yl)propyl)thiophene-2-carboxamide]
CC(C)(C)OC(=O)NCCNC(=O)CCCN(C(=O)c1cccs1)c1nc(-c2cc3ccccc3o2)cs1 [tert-butyl 2-(4-(N-(4-(benzofuran-2-yl)thiazol-2-yl)thiophene-2-carboxamido)butanamido)ethylcarbamate]
COC(=O)CNC(=O)CCN(C(=O)c1cccs1)c1nc(-c2cc3ccccc3o2)cs1 [methyl 2-(3-(N-(4-(benzofuran-2-yl)thiazol-2-yl)thiophene-2-carboxamido)propanamido)acetate]
O=C(c1cccs1)N(CCCCN1CCOCC1)c1nc(-c2cc(-c3ccccc3)no2)cs1 [N-(4-morpholinobutyl)-N-(4-(3-phenylisoxazol-5-yl)thiazol-2-yl)thiophene-2-carboxamide]
COCCN1CCN(CCCN(C(=O)c2cccs2)c2nc(-c3cc4ccccc4o3)cs2)CC1 [N-(4-(benzofuran-2-yl)thiazol-2-yl)-N-(3-(4-(2-methoxyethyl)piperazin-1-yl)propyl)thiophene-2-carboxamide]
COc1cccc(CNC(=O)c2csc(N(CCCN3CCOCC3)C(=O)c3cccs3)n2)c1 [N-(3-methoxybenzyl)-2-(N-(3-morpholinopropyl)thiophene-2-carboxamido)thiazole-4-carboxamide]
Cn1cccc1C(=O)N(CCCN1CCCC1=O)c1nc(-c2cc(-c3ccccc3)no2)cs1 [1-methyl-N-(3-(2-oxopyrrolidin-1-yl)propyl)-N-(4-(3-phenylisoxazol-5-yl)thiazol-2-yl)-1H-pyrrole-2-carboxamide]
Cc1cnc(CNC(=O)CCCN(C(=O)c2cccs2)c2nc(-c3cc4ccccc4o3)cs2)cn1 [N-(4-(benzofuran-2-yl)thiazol-2-yl)-N-(4-((5-methylpyrazin-2-yl)methylamino)-4-oxobutyl)thiophene-2-carboxamide]
CCCN(C(=O)c1cccs1)c1nc(-c2cc3ccccc3o2)cs1 [N-(4-(benzofuran-2-yl)thiazol-2-yl)-N-propylthiophene-2-carboxamide]
O=C(O)c1ccc(-c2csc(N(CCCN3CCOCC3)C(=O)c3cccs3)n2)cc1 [4-(2-(N-(3-morpholinopropyl)thiophene-2-carboxamido)thiazol-4-yl)benzoic acid]
O=C(c1cccs1)N(CCCN1CCOCC1)c1nc(-c2cc(-c3ccccc3)no2)cs1 [N-(3-morpholinopropyl)-N-(4-(3-phenylisoxazol-5-yl)thiazol-2-yl)thiophene-2-carboxamide]
Cc1cccc(C(=O)N(CCCN2CCOCC2)c2nc(-c3ccccc3)cs2)c1 [3-methyl-N-(3-morpholinopropyl)-N-(4-phenylthiazol-2-yl)benzamide]
CN1CCN(CCCN(C(=O)c2ccccc2)c2nc(-c3ccccc3)cs2)CC1 [N-(3-(4-methylpiperazin-1-yl)propyl)-N-(4-phenylthiazol-2-yl)benzamide]
O=C(c1cccs1)N(CCCN1CCOCC1)c1nc(-c2csc3ccccc23)cs1 [N-(4-(benzo[b]thiophen-3-yl)thiazol-2-yl)-N-(3-morpholinopropyl)thiophene-2-carboxamide]
COc1ccc(-c2csc(N(CCCN3CCOCC3)C(=O)c3cc(Cl)ccn3)n2)cc1 [4-chloro-N-(4-(4-methoxyphenyl)thiazol-2-yl)-N-(3-morpholinopropyl)picolinamide]
O=C(c1cccs1)N(CCCN1CCOCC1)c1nc(-c2ccccc2Cl)cs1 [N-(4-(2-chlorophenyl)thiazol-2-yl)-N-(3-morpholinopropyl)thiophene-2-carboxamide]
CS(=O)(=O)c1ccc(-c2csc(N(CCCN3CCOCC3)C(=O)c3cccs3)n2)cc1 [N-(4-(4-(methylsulfonyl)phenyl)thiazol-2-yl)-N-(3-morpholinopropyl)thiophene-2-carboxamide]
COc1ccc(-c2csc(N(CCCN3CCOCC3)C(=O)c3ccccc3)n2)cc1 [N-(4-(4-methoxyphenyl)thiazol-2-yl)-N-(3-morpholinopropyl)benzamide]
O=C(c1cccs1)N(CCCN1CCOCC1)c1nc(-c2nc3ccccc3s2)cs1 [N-(4-(benzo[d]thiazol-2-yl)thiazol-2-yl)-N-(3-morpholinopropyl)thiophene-2-carboxamide]
COc1ccc(OC)c(-c2csc(N(CCCN3CCCC3)C(=O)c3ccccc3)n2)c1 [N-(4-(2,5-dimethoxyphenyl)thiazol-2-yl)-N-(3-(pyrrolidin-1-yl)propyl)benzamide]
O=C(c1cccs1)N(CCCN1CCN(CCO)CC1)c1nc(-c2cc3ccccc3o2)cs1 [N-(4-(benzofuran-2-yl)thiazol-2-yl)-N-(3-(4-(2-hydroxyethyl)piperazin-1-yl)propyl)thiophene-2-carboxamide]
O=C(c1cccs1)N(CCCN1CCCC(CO)C1)c1nc(-c2cc3ccccc3o2)cs1 (stereo not shown) [N-(4-(benzofuran-2-yl)thiazol-2-yl)-N-(3-(3-(hydroxymethyl)piperidin-1-yl)propyl)thiophene-2-carboxamide]
O=C(CCCN(C(=O)c1cccs1)c1nc(-c2cc3ccccc3o2)cs1)N(CCO)c1ccccc1 [N-(4-(benzofuran-2-yl)thiazol-2-yl)-N-(4-((2-hydroxyethyl)(phenyl)amino)-4-oxobutyl)thiophene-2-carboxamide]
O=C(CCN(C(=O)c1cccs1)c1nc(-c2cc3ccccc3o2)cs1)NCC1COCCO1 (stereo not shown) [N-(3-((1,4-dioxan-2-yl)methylamino)-3-oxopropyl)-N-(4-(benzofuran-2-yl)thiazol-2-yl)thiophene-2-carboxamide]
CN1CCN(CCCN(C(=O)c2ccco2)c2nc(-c3ccccc3)cs2)CC1 [N-(3-(4-methylpiperazin-1-yl)propyl)-N-(4-phenylthiazol-2-yl)furan-2-carboxamidevv]
NC(=O)C1CCCCN1CCCN(C(=O)c1cccs1)c1nc(-c2cc3ccccc3o2)cs1 (stereo not shown) [1-(3-(N-(4-(benzofuran-2-yl)thiazol-2-yl)thiophene-2-carboxamido)propyl)piperidine-2-carboxamide]
